Read-outs that look alike come from different tables or passages of the source.
Assays:
C150 protein = target: T1, C150 protein (Hepatitis B virus genotype D subtype adw, UniProt P03147, C107A/C48A/C61A/R150C); test: In vitro anti-HBV nucleocapsid assembly activity test (Experiment 1, protein experiment); format: biochemical
T1 construct: purchased WuXi Apptec Co., Ltd
Procedure: Experiment 1: In Vitro Anti-HBV Nucleocapsid Assembly Activity Test
Main Reagents and Raw Materials:
C150 protein was expressed and purified by WuXi Apptec Co., Ltd.
BoDIPY® FL was purchased from Thermo Fisher Scientific.
Protein Fluorescent Label:
150 μL of 2% w/v skimmed milk was added into each well of 96-well plate, and incubated at room temperature for 2 hours. The skimmed milk was aspirated. The plate was washed with deionized water and dried, and stored at room temperature. C150 protein (3 mg per tube) was desalted with 5 ml Hitrap desalting column. The desalted C150 protein of each tube was added with 50 mM BoDIPY® FL Fluorescent Dye (20 μl), and incubated under 4° C. overnight in the dark after well mixed. Sephadex G-25 gel was used for filtration to remove fluorescent dyes that were not bounded onto C150. The C150 fluorescent labeling efficiency was calculated according to the following equation: [BoDIPY®FL]=A504/78,000 M^−1; [C150Bo]=(A280−[BoDIPY®FL]×1300 M^−1)/60,900 M^−1; Fluorescent Labeling Efficiency=[BoDIPY®FL]/[C150Bo];
The mother liquor of compound was diluted with DMSO to 6 mM, then diluted to 600 μM with 50 mM HEPES, and then further 3-fold diluted with 10 DMSO/50 mM HEPES to 8 concentrations.
C150Bo was diluted to 2 μM with 50 mM HEPES. 37.5 μL of C150Bo and 2.5 μL of compound at each concentration were added into a 96 well plate and well mixed, then incubated at room temperature for 15 minutes. 10 μl of 750 mM NaCl/50 mM HEPES were added into the each reaction well, and the final concentration of NaCl was 150 mM.
Into the control wells in the 0% protein group 10 μL of 50 mM HEPES was added, and the final concentration of NaCl was 0 mM.
Into the control wells in the 100% protein group 10 μL of 5 M/50 mM HEPES was added, and the final concentration of NaCl was 1 M.
The final concentration of DMSO was 0.5%, the maximum final concentration of the compound was 30 μM, and final concentration of C150Bo was 1.5 μM. The mixture was incubated at room temperature for 1 hour. Fluorescence signal was measured (excitation light was 485 nm; emission light was 535 nm).
Data Analysis % protein assembly=[1−(Sample fluorescence value−1 M NaCl fluorescence value)/(0 M NaCl fluorescence value−1 M NaCl fluorescence value)]×100.
IC50 value was calculated by prism software, and the equation was as follows: Y=Bottom+(Top−Bottom)/(1+10^((LogIC50−X)HillSlope));

[1] = Determination of cytotoxicity (Experiment 3, resazurin assay); format: cell-based; conditions: human
Procedure: Compound dilution. All the compounds for in vitro anti-HBV activity assay and cytotoxicity assay were 3-fold diluted into 8 concentrations. The final concentration of the tested compound was 30 μM, the final starting concentration of reference compound GLS4 was 1 μM, and the final concentration of DMSO was 0.5%. Experiment 3: Determination of Cytotoxicity The cytotoxicity of the test compound was tested using HepG2 cells. The cells were incubated for 4 days in the presence of the test compound. Cell activity was assessed using the resazurin assay.

HBV = test: Determination of anti-HBV activity in HepG2.2.15 cell (Experiment 2, HBV DNA in supernatant by qPCR); format: cell-based; conditions: Hepatitis B virus
Procedure: Experiment 2: Determination of Anti-HBV Activity in HepG2.2.15 Cell
Compound dilution. All the compounds for in vitro anti-HBV activity assay and cytotoxicity assay were 3-fold diluted into 8 concentrations. The final concentration of the tested compound was 30 μM, the final starting concentration of reference compound GLS4 was 1 μM, and the final concentration of DMSO was 0.5%.
HepG2.2.15 cell (4×10^4 cell/well) was inoculated into 96 well plate, and cultured overnight in 37° C., 5% CO2. On the second day, fresh culture medium containing different concentrations of the compound was added into the culture wells. On the fifth day, the old culture solution in the culture well was aspirated and fresh culture medium containing different concentrations of the compound was added.
On the eighth day, the supernatant in the culture well was collected for extraction of HBV DNA, and the content of DNA in the supernatant of HepG2.2.15 HBV was detected by qPCR. After the supernatant was collected, the medium and Cell-titer Glo reagent were added into the culture well, and the chemiluminescence value of each well was measured by microplate reader.
The activity calculation formula was as follows: Y=Bottom+(Top−Bottom)/(1+10^((LogIC50−X)*Hillslope));

[2] = fluorescently labeled C150 (C150Bo) 1.5 μM, 150 mM NaCl, 1 hour at room temperature, read-out: Experiment 1 Protein experiment IC50
[3] = HepG2 cells, incubated for 4 days, resazurin assay, read-out: Experiment 3 Cytotoxicity CC50
[4] = HepG2.2.15 cells, HBV DNA in supernatant on the eighth day, qPCR, read-out: Experiment 2 Cell experiment EC50
[5] = HepG2.2.15, read-out: Experiment 2 Cell experiment EC50 (nM)

T1 sequence (P03147 1-150 C48A/C61A/C107A/R150C): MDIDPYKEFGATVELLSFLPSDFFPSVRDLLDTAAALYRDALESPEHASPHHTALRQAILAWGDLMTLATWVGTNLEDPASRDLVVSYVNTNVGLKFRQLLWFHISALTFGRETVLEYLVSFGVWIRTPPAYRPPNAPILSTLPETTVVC

Row | SMILES | IC50 (C150 protein; [2]) [nM] | CC50 at 4 days [1, 3] [nM] | EC50 (HBV; [4]) [nM] | IC50 (C150 protein) [nM] | CC50 at 4 days [1] [nM] | EC50 (HBV; [5]) [nM]
1 | CC(CO)NS(=O)(=O)Nc1c(Cl)c(C(=O)Nc2cc(F)nc(C#N)c2)n2c1CCC2 (stereo not drawn) [Compound 90f] | 1000 to 100000 | > 30000 | 0.1 to 100 |  |  | 
2 | C[C@@H](NS(=O)(=O)Nc1c(Cl)c(C(=O)Nc2ccc(F)c(F)c2)n2c1CCC2)C(F)(F)F [Compound 90a] | 1000 to 100000 | > 30000 | 0.1 to 100 |  |  | 
3 | Cn1c(C(=O)Nc2cc(F)nc(C#N)c2)c2cc[nH]c2c1S(=O)(=O)NC1(C)COC1 [Compound 80f] | 1000 to 100000 | > 30000 | 0.1 to 100 |  |  | 
4 | C[C@@H](NS(=O)(=O)c1c(Cl)c(C(=O)Nc2ccc(F)c(C#N)c2)n2c1C=CCCC2)C(F)(F)F [Compound 50b] |  | > 30000 | 0.1 to 100 | > 100000 |  | 
5 | Cc1c(S(=O)(=O)NC2C3CCC2CC(O)(CO)C3)c2n(c1C(=O)Nc1ccc(F)c(F)c1)CC=C2 (stereo not drawn) [Compound 10mm] | 1000 to 100000 | > 30000 | 100 to 1000 |  |  | 
6 | CC(NC(=O)Nc1c(Cl)c(C(=O)Nc2ccnc(Cl)c2)n2c1CCC2)C(F)(F)F (stereo not drawn) [Compound 100b] |  | > 30000 | 0.1 to 100 | 1000 to 100000 |  | 
7 | CC(NS(=O)(=O)c1c2ncccc2c(C(=O)Nc2ccc(F)c(C#N)c2)n1C)C(F)(F)F (stereo not drawn) [Compound 70b] | > 100000 | > 30000 | 0.1 to 100 |  |  | 
8 | CC(NS(=O)(=O)c1c(Cl)c(C(=O)Nc2ccnc(C(F)F)c2)n2c1C=CC2)C(F)(F)F (stereo not drawn) [Compound 10d] | 1000 to 100000 | > 30000 | 100 to 1000 |  |  | 
9 | O=C(Nc1ccc(F)c(F)c1)c1c(Cl)c(S(=O)(=O)N2C3CCC2CC(O)(c2cc(-c4ccccc4)on2)C3)c2n1CC=C2 (stereo not drawn) [Compound 10ww] |  |  |  | 1000 to 100000 | > 30000 | 0.1 to 100
10 | Cc1c(S(=O)(=O)NC2(C)COC2)c2n(c1C(=O)Nc1ccnc(C(F)F)c1)CC=C2 [Compound 10aa] | 1000 to 100000 | > 30000 | 100 to 1000 |  |  | 
11 | Cc1c(S(=O)(=O)N2C3CCC2CC(O)(CO)C3)c2n(c1C(=O)Nc1cc(F)nc(C#N)c1)CC=C2 (stereo not drawn) [Compound 10vv] |  |  |  | 1000 to 100000 | > 30000 | 0.1 to 100
12 | Cc1c(NC(=O)NC2(C)COC2)c2n(c1C(=O)Nc1cc(F)nc(C#N)c1)CCCCC2 [Compound 100r] | 1000 to 100000 | > 30000 | 0.1 to 100 |  |  | 
13 | Cc1c(NS(=O)(=O)NC2(C)COC2)c2n(c1C(=O)Nc1ccc(F)c(F)c1)CCC2 [Compound 90g] | 1000 to 100000 | > 30000 | 0.1 to 100 |  |  | 
14 | C[C@@H](NS(=O)(=O)c1c(Cl)c(C(=O)Nc2ccc(F)c(C#N)c2)n2c1C=CCC2)C(F)(F)F [Compound 30b] |  | > 30000 | 0.1 to 100 | 1000 to 100000 |  | 
15 | C[C@@H](NS(=O)(=O)c1c(Cl)c(C(=O)Nc2ccc(F)c(C#N)c2)n2c1CCCCC2)C(F)(F)F [Compound 60b] |  | > 30000 | 0.1 to 100 | 1000 to 100000 |  | 
16 | CC(CO)NS(=O)(=O)c1c(Cl)c(C(=O)Nc2ccc(F)c(C#N)c2)n2c1CCC2 (stereo not drawn) [Compound 20dd] | 1000 to 100000 | > 30000 | 100 to 1000 |  |  | 
17 | N#Cc1cc(NC(=O)c2c(Cl)c(S(=O)(=O)NC3C4CCC3CC(O)(CO)C4)c3n2CCC3)cc(F)n1 (stereo not drawn) [Compound 20ll] | 1000 to 100000 | > 30000 | 0.1 to 100 |  |  | 
18 | C[C@@H](NS(=O)(=O)c1c2[nH]ccc2c(C(=O)Nc2ccc(F)c(F)c2)n1C)C(F)(F)F [Compound 80a] | 1000 to 100000 | > 30000 | 100 to 1000 |  |  | 
19 | CC(NS(=O)(=O)c1c(Cl)c(C(=O)Nc2ccnc(Cl)c2)n2c1C=CC2)C(F)(F)F (stereo not drawn) [Compound 10e] | 1000 to 100000 | > 30000 | 100 to 1000 |  |  | 
20 | Cc1c(S(=O)(=O)NC(C)C(F)(F)F)c2n(c1C(=O)Nc1ccc(F)c(C#N)c1)CCCC2 (stereo not drawn) [Compound 40f] | 1000 to 100000 | > 30000 | 0.1 to 100 |  |  | 
21 | CC(NS(=O)(=O)c1c2ncccc2c(C(=O)Nc2ccc(F)c(F)c2)n1C)C(F)(F)F (stereo not drawn) [Compound 70a] | > 100000 | > 30000 | 0.1 to 100 |  |  | 
22 | CC(CO)NC(=O)Nc1c(Cl)c(C(=O)Nc2cc(F)nc(C#N)c2)n2c1CCCC2 (stereo not drawn) [Compound 100p] | 1000 to 100000 | > 30000 | 0.1 to 100 |  |  | 
23 | CC(NS(=O)(=O)c1c(Cl)c(C(=O)Nc2cc(F)c(F)c(F)c2)n2c1CCC2)C(F)(F)F (stereo not drawn) [Compound 20b] |  | > 30000 | 0.1 to 100 | < 1000 |  | 
24 | CC(NS(=O)(=O)c1c2[nH]ccc2c(C(=O)Nc2cc(F)nc(C#N)c2)n1C)C(F)(F)F (stereo not drawn) [Compound 80d] | 1000 to 100000 | > 30000 | 0.1 to 100 |  |  | 
25 | Cc1c(NS(=O)(=O)NC2(C)COC2)c2n(c1C(=O)Nc1cc(F)nc(C#N)c1)CCC2 [Compound 90h] | 1000 to 100000 | > 30000 | 0.1 to 100 |  |  | 

Reference: patent US11591334B2, “Substituted pyrrolizines for the treatment of hepatitis B” (SHANGHAI LONGWOOD BIOPHARMACEUTICALS CO., LTD., priority 2017, dated 2023)
